Data on 10 compounds can be found in patent publication US20180201609A1 (AURIGENE DISCOVERY TECHNOLOGIES LIMITED, priority 2015, published 2018).

Structures can show the parent of a compound that is named as a salt.

The inhibition is the drop in the measured response relative to a control, in per cent.

The target of the experiment is T1, IRAK-4 enzyme (Homo sapiens, UniProt Q9NWZ3).
T1 construct: purchased Millipore, USA
T1 sequence (Q9NWZ3 1-460): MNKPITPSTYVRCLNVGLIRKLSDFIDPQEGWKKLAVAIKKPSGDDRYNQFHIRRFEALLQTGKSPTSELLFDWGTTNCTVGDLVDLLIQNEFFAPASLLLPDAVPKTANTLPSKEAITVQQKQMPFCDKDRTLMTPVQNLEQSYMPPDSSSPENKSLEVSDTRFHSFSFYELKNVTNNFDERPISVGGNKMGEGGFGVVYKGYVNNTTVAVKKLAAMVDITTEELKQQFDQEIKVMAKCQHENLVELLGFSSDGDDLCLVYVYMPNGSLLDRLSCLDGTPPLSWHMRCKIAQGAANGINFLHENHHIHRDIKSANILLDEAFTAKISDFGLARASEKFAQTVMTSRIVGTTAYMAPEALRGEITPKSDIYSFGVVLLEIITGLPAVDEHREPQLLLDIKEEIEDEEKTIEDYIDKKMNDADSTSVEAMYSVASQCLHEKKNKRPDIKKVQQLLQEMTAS
The experiment can be described thus: IRAK-4 Biochemical Assay (TR-FRET). To be noted: recombinant IRAK-4 kinase, 20 μM ATP; for inhibition at 0.1 µM: 0.1 μM compound; for inhibition at 1 µM: 1 μM compound. The protocol: Compounds were tested for their potential to inhibit IRAK-4 enzyme in a TR-FRET assay using recombinant IRAK-4 kinase from Millipore, USA. The assay buffer was 50 mM Tris-HCl pH 7.5, 20 mM MgCl2, 1 mM EGTA, 2 mM DTT, 3 mM MnCl2 and 0.01% Tween 20.5 ng of IRAK-4 kinase was used for the assay. After pre-incubation of enzyme with test compound for 30 minutes at room temperature, a substrate mixture containing 100 nM Biotin Histone H3 (Millipore, USA) and 20 μM ATP (Sigma, USA) was added and the reaction was incubated for 30 min. Post incubation, the reaction was stopped by the addition of stop mix containing 40 mM EDTA, 1 nM of Europium-Anti-Phospho-Histone H3 (Ser10) antibody (Perkin Elmer, USA) and 20 nM SureLight Allophycocyanin-Streptavidin (Perkin Elmer, USA). The fluorescence emission at 615 nm and 665 nm were measured at an excitation of 340 nm and the percent inhibition was estimated from the ratio of the fluorescence intensities [(F665/F615)×10000].
The compounds of the present invention were screened in the above mentioned assay and the percent inhibition data is summarized in the Table 1.

On to `Cn1ncc2cc(NC(=O)c3coc(-c4cccnc4N)n3)c(N3CCC(O)CC3)cc21` [Example 1, 2-(2-aminopyridin-3-yl)-N-(6-(4-hydroxypiperidin-1-yl)-1-methyl-1H-indazol-5-yl)oxazole-4-carboxamide hydrochloride], for which the inhibition at 0.1 µM worked out at 96% and the inhibition at 1 µM worked out at 97%.
`Cc1cc(-c2nc(C(=O)Nc3cc4cnn(CCN(C)C)c4cc3N3CCC(O)CC3)co2)ccn1` [Example 2, N-(1-(2-(dimethylamino)ethyl)-6-(4-hydroxypiperidin-1-yl)-1H-indazol-5-yl)-2-(2-methylpyridin-4-yl)oxazole-4-carboxamide]: the inhibition at 0.1 µM is 95% and the inhibition at 1 µM was 98%.
`Cc1cc(-c2nc(C(=O)Nc3cc4cnn(CCN5CCOCC5)c4cc3N3CCC(O)CC3)co2)ccn1` [Example 3, N-(6-(4-hydroxypiperidin-1-yl)-1-(2-morpholinoethyl)-1H-indazol-5-yl)-2-(2-methylpyridin-4-yl)oxazole-4-carboxamide]: the inhibition at 0.1 µM came to 97% and the inhibition at 1 µM worked out at 100%.
Regarding `COCCCn1ncc2cc(NC(=O)c3coc(-c4ccnc(C)c4)n3)c(N3CCC(O)CC3)cc21` [Example 4, N-(6-(4-hydroxypiperidin-1-yl)-1-(3-methoxypropyl)-1H-indazol-5-yl)-2-(2-methylpyridin-4-yl)oxazole-4-carboxamide hydrochloride], the inhibition at 0.1 µM was determined as 95% and the inhibition at 1 µM turned out to be 99%.
In the same order, the values of `Cc1cc(-c2nc(C(=O)Nc3cc4cnn(CCCN5CCOCC5)c4cc3N3CCC(O)CC3)co2)ccn1` [Example 5, N-(6-(4-hydroxypiperidin-1-yl)-1-(3-morpholinopropyl)-1H-indazol-5-yl)-2-(2-methylpyridin-4-yl)oxazole-4-carboxamide] are 94% and 99%.
Take `Cc1cc(-c2nc(C(=O)Nc3cc4cnn(CCN5CCN(C)CC5)c4cc3N3CCC(O)CC3)co2)ccn1` [Example 6, N-(6-(4-hydroxypiperidin-1-yl)-1-(2-(4-methylpiperazin-1-yl)ethyl)-1H-indazol-5-yl)-2-(2-methylpyridin-4-yl)oxazole-4-carboxamide]: the inhibition at 0.1 µM turned out to be 79% and the inhibition at 1 µM came to 96%.
On the same counts, the results for `COCCn1ncc2cc(NC(=O)c3coc(-c4ccnc(N)c4)n3)c(N3CCC(O)CC3)cc21` [Example 7, 2-(2-aminopyridin-4-yl)-N-(6-(4-hydroxypiperidin-1-yl)-1-(2-methoxyethyl)-1H-indazol-5-yl)oxazole-4-carboxamide hydrochloride] are 96% and 98%.
As for `Cc1nn(C)c2cc(N3CCC(CO)CC3)c(NC(=O)c3cnn4cccnc34)cc12` [Example 8, N-(6-(4-(hydroxymethyl)piperidin-1-yl)-1,3-dimethyl-1H-indazol-5-yl)pyrazolo[1,5-a]pyrimidine-3-carboxamide hydrochloride], the inhibition at 0.1 µM was found to be 43% and the inhibition at 1 µM came out at 91%.
With `COCCn1nc(C)c2cc(NC(=O)c3coc(-c4ccnc(N)c4)n3)c(N3CCC(O)CC3)cc21` [Example 9, 2-(2-aminopyridin-4-yl)-N-(6-(4-hydroxypiperidin-1-yl)-1-(2-methoxyethyl)-3-methyl-1H-indazol-5-yl)oxazole-4-carboxamide], the inhibition at 0.1 µM was 97% and the inhibition at 1 µM came out at 99%.
In the same order, the values of `COCCn1nc(C)c2cc(NC(=O)c3coc(-c4ccnc(N)c4)n3)c(N3CCC(CO)CC3)cc21` [Example 10, 2-(2-aminopyridin-4-yl)-N-(6-(4-(hydroxymethyl)piperidin-1-yl)-1-(2-methoxyethyl)-3-methyl-1H-indazol-5-yl)oxazole-4-carboxamide hydrochloride] are 99% and 99%.
